According to patent publication US20100286247A1, “Methods of Protection from Oxidative Stress” (Trustees of Boston University, priority 2005, published 2010):

Test system: CAT mRNA
Experiment: Northern blot analysis of antioxidant enzyme mRNA: CAT
Assay type: cell-based, human
Conditions: 100 μM pTT, 8-72 hours
Protocol: Cell culture followed previously published methods.^92 Primary human newborn dermal fibroblasts were cultured from neonatal circumcised foreskin specimens. The skin samples were treated overnight in a 0.25% trypsin solution at 4° C. to separate the epidermis from the dermis. The separated dermis was then cut into pieces and plated onto etched plastic tissue culture dishes. Primary culture medium consisted of DMEM supplemented with 10% bovine CS, 50 U/ml penicillin and 50 μg/ml streptomycin sulfate. […] Secondary culture medium consisted of DMEM supplemented with 10% CS.
Purified 5′-phosphorylated thymidine dinucleotides (pTT) (Midland Certified Reagents, Inc., Texas) purified by gel filtration and analyzed by mass spectroscopy, were obtained in lyophilized form. […] The stock solution was syringe filter-sterilized through a 0.2 μm pore filter and spectrophotometrically analyzed (absorbance at 260 and 280 nm) to determine the concentration, and frozen in aliquots at −20° C. […]
Cells were harvested in Trizol (Gibco BRL, Gaithersburg, Md.) and stored at −70° C. […] RNA solutions were measured by spectrophotometer readings at 260 nm and 280 nm to determine concentration and purity. […]
Northern and western films as well as stained membranes and pictures of ethidium bromide-stained gels were digitally scanned and analyzed by densitometry. […]

Substance: 5′-phosphorylated thymidine dinucleotides [pTT]
- CAT mRNA level compared to diluent: remain unchanged
